Results: the supplement of paper PMC4862054

Assays:
Conditions in all cases: incubation time: 72 h
MDA-MB-453 [1] = assay: normalised viability (% of control), CellTiter-Blue; higher = more viable cells (about 100 = DMSO control)
Outline: (§1)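 384-well plates were pre-loaded with compound in 5 µl medium before 20 µl of breast cancer cell suspension was seeded. Following 72 h incubation, 2.5 µl CellTiter-Blue reagent was added for 2 h at 37 °C. Fluorescence was read at 560/590 nm and plates were normalised to vehicle (100) and a positive kill control (0), checked by Z'-factor. Normalised viability is reported at a single listed concentration of the series.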

MFM-223 [2] = assay: as above
Outline: as §1

BT-474 [3] = assay: as above
Outline: as §1

MDA-MB-436 [4] = assay: as above
Outline: as §1

BT-549 [5] = assay: as above
Outline: as §1

DU-4475 [6] = assay: as above
Outline: as §1

HDQ-P1 [7] = assay: as above
Outline: as §1

HCC1599 [8] = assay: as above
Outline: as §1

MDA-MB-231 [9] = assay: as above
Outline: as §1

CAL-148 = assay: drug sensitivity score (DSS), CellTiter-Blue viability (DSS (AUC-based score)); higher = stronger viability inhibition; extreme values may be limits of the assay
Procedure: (§2)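 DSRT with the CellTiter-Blue (resazurin reduction) viability readout, fluorescence 560/590 nm, 72 h incubation. Plates were normalised to DMSO and benzethonium chloride controls. DSS is computed from the area under the fitted dose-response curve (5 or 9 concentrations).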

MDA-MB-453 [10] = assay: as above
Procedure: as §2

MDA-MB-468 = assay: as above
Procedure: as §2

SK-BR-3 = assay: as above
Procedure: as §2

MFM-223 [11] = assay: as above
Procedure: as §2

BT-474 [12] = assay: as above
Procedure: as §2

CAL-120 = assay: as above
Procedure: as §2

CAL-85-1 = assay: as above
Procedure: as §2

HCC1937 = assay: as above
Procedure: as §2

MDA-MB-436 [13] = assay: as above
Procedure: as §2

BT-549 [14] = assay: as above
Procedure: as §2

DU-4475 [15] = assay: as above
Procedure: as §2

Hs578T = assay: as above
Procedure: as §2

HCC1143 = assay: as above
Procedure: as §2

HDQ-P1 [16] = assay: as above
Procedure: as §2

HCC1599 [17] = assay: as above
Procedure: as §2

CAL-51 = assay: as above
Procedure: as §2

MDA-MB-231 [18] = assay: as above
Procedure: as §2

SMILES	normalised viability (MDA-MB-453 [1]; 1 nM) [%]	normalised viability (MFM-223 [2]; 10 nM) [%]	normalised viability (BT-474 [3]; 10 nM) [%]	normalised viability (MDA-MB-436 [4]; 10 nM) [%]	normalised viability (BT-549 [5]; 10 nM) [%]	normalised viability (DU-4475 [6]; 1 nM) [%]	normalised viability (HDQ-P1 [7]; 1 nM) [%]	normalised viability (HCC1599 [8]; 10 nM) [%]	normalised viability (MDA-MB-231 [9]; 10 nM) [%]	drug sensitivity score (CAL-148)	drug sensitivity score (MDA-MB-453 [10])	drug sensitivity score (MDA-MB-468)	drug sensitivity score (SK-BR-3)	drug sensitivity score (MFM-223 [11])	drug sensitivity score (BT-474 [12])	drug sensitivity score (CAL-120)	drug sensitivity score (CAL-85-1)	drug sensitivity score (HCC1937)	drug sensitivity score (MDA-MB-436 [13])	drug sensitivity score (BT-549 [14])	drug sensitivity score (DU-4475 [15])	drug sensitivity score (Hs578T)	drug sensitivity score (HCC1143)	drug sensitivity score (HDQ-P1 [16])	drug sensitivity score (HCC1599 [17])	drug sensitivity score (CAL-51)	drug sensitivity score (MDA-MB-231 [18])	normalised viability (MDA-MB-453 [1]; 10 nM) [%]	normalised viability (MFM-223 [2]; 100 nM) [%]	normalised viability (BT-474 [3]; 100 nM) [%]	normalised viability (MDA-MB-436 [4]; 100 nM) [%]	normalised viability (BT-549 [5]; 100 nM) [%]	normalised viability (DU-4475 [6]; 10 nM) [%]	normalised viability (HDQ-P1 [7]; 10 nM) [%]	normalised viability (HCC1599 [8]; 100 nM) [%]	normalised viability (MDA-MB-231 [9]; 100 nM) [%]
Cc1ccc(C(=O)N(CCCN)[C@@H](c2oc3cc(Cl)ccc3c(=O)c2Cc2ccccc2)C(C)C)cc1	112	41.6	30.3	55.9	27.4	105	105	80.5	27.6	23.3	21.5	23.8	31.6	18.1	21.6	27.6	19.9	29.8	13.4	24.4	20.2	25.7	19.5	10.1	0	20.1	31.2	–	–	–	–	–	–	–	–	–
NC(=O)Nc1cc(-c2cccc(F)c2)sc1C(=O)N[C@H]1CCCNC1 [AZD 7762]	104	96.2	124	96.1	120	113	115	101	114	2.2	5.94	2.52	4.87	0	0	2.17	6.01	2.04	5.44	1.54	2.46	5.73	1.6	3.34	5.69	2.84	1.83	–	–	–	–	–	–	–	–	–
CO[C@H]1/C=C\C=C(/C)C(=O)NC2=CC(=O)C(NCCN(C)C)=C(C[C@@H](C)C[C@H](OC)[C@H](O)[C@@H](C)/C=C(\C)[C@@H]1OC(N)=O)C2=O [Alvespimycin]	93.4	58.3	92.1	74.9	43.2	105	112	77	97.2	16.9	22.6	10.4	20.9	18.7	14.6	15.3	13.7	17.2	16.1	20	21.9	16.5	11.5	13.8	10.5	14	12.2	–	–	–	–	–	–	–	–	–
CCC1(c2ccc(N)cc2)CCC(=O)NC1=O (stereo unspecified) [Aminoglutethimide]	–	–	–	–	–	–	–	–	–	0	0	0	0	0	0	0	0	0	0	0	0	0	0	0	0	0	0	86.3	97	112	90.9	73.2	104	93.5	104	93.7
NCC(=O)CCC(=O)O [Aminolevulinic acid]	–	–	–	–	–	–	–	–	–	0	0	0	0	0	0	0	0	0	0	0	0	0	0	0	0	0	0	99.1	91.7	114	104	104	104	100	87.9	110
CCN(CCCOc1ccc2c(Nc3cc(CC(=O)Nc4cccc(F)c4)[nH]n3)ncnc2c1)CCOP(=O)(O)O [Barasertib]	108	93.4	90.2	113	96.8	102	111	101	102	20.5	11.8	12.1	0	0	0	8.21	4.42	9.75	0	5.75	4.75	7.48	0	0	0	8.86	3.7	–	–	–	–	–	–	–	–	–
Cn1c(CCCC(=O)O)nc2cc(N(CCCl)CCCl)ccc21 [Bendamustine]	–	–	–	–	–	–	–	–	–	0	0	0	0.0662	0	0	0	0	0	0	0	0	0	0	0	0	0	0	112	102	108	83.4	109	120	112	105	93.2
C=C(c1ccc(C(=O)O)cc1)c1cc2c(cc1C)C(C)(C)CCC2(C)C [Bexarotene]	–	–	–	–	–	–	–	–	–	1.2	0	0	0	0	0	0	0	2.11	0	0	0	0	0	0	0	0	0	92	87.4	102	77.2	73.2	110	86.4	88	80.5
CC(=O)Nc1ccc(C(=O)Nc2ccccc2N)cc1 [CI-994]	113	97.5	106	94.2	96.9	93.9	113	108	103	0	0	0	0	0	0	0	0	0	0	0	0	0	0	0	0	0	0	–	–	–	–	–	–	–	–	–
COc1cc2nccc(Oc3ccc(NC(=O)C4(C(=O)Nc5ccc(F)cc5)CC4)cc3)c2cc1OC [Cabozantinib]	98.5	93.5	122	108	104	89.4	99.5	82.3	100	0.402	1.25	0	0	0	0	0	0	0	0	0	0	0	0	0	0	0	0	–	–	–	–	–	–	–	–	–
N.N.[Cl][Pt][Cl] [Cisplatin]	–	–	–	–	–	–	–	–	–	0	0	0	0	0	0	0	0	0	0	0	0	0	0	0	0	0	0	111	93.7	127	89.8	105	103	130	95.4	96.4
C[C@@H](Oc1cc(-c2cnn(C3CCNCC3)c2)cnc1N)c1c(Cl)ccc(F)c1Cl [Crizotinib]	–	–	–	–	–	–	–	–	–	2.67	8.6	4.88	4.22	4.74	5.02	6.42	3.39	6.92	14.8	1.89	3.43	1.65	2.03	1.42	0	4.08	9.17	94.2	83.4	92.7	84.8	95.2	91.3	85	99.6	84.7
CN(C)/N=N/c1[nH]cnc1C(N)=O [Dacarbazine]	–	–	–	–	–	–	–	–	–	0	0	0	0	0	0	0	0	0	0	0	0	0	0	0	0	0	0	99.2	88.8	117	86.8	99.4	98.4	111	78.8	93.1
